The values that follow come from patent US11304956B2, “Use of 7-bromo-5-(O-chlorophenyl)-3-propoxy-1,2-dihydro-3H-1,4-benzodiazepin-2-one for inhibition of neuropathic pain and seizures of different etiology” (priority 2016, dated 2022).

For one assay, the system named is formalin test in mice. Put plainly: Formalin test (licking time of the injected paw). The class given is in vivo, white male non-linear mice. Conditions: 10.00 mg/kg intraperitoneally 40 min before formalin.
The subject of assay [1] is carrageenan rat paw edema. Briefly: Carrageenan rat paw edema. In kind it is in vivo, male white rats. Conditions: 10.0 mg/kg intraperitoneally 40 min before carrageenan. An excerpt:
Given the fact that Compound 1 affects not only the painful, but also the inflammatory phase, we undertook an in-depth study of its anti-inflammatory effect. The most common screening method of anti-inflammatory activity is the model of inflammatory edema of the rat hind paw, induced by the subplantar administration of various phlogogenic agents. Under the conditions of carrageenan administration, a sufficiently pronounced edema reaction is observed, which slowly develops and persists for a long time. The maximum size of edema is observed in 2-4 hours.
The anti-inflammatory properties of the test compounds were studied in the model of carrageenan rat paw edema. Male white rats weighing 150-180 g were used in the experiments. Before the administration of the experimental substances, the volumes of the rats' paws subsequently injected by phlogogen were measured. The test compounds and the reference drug—diclofenac-sodium, were administered intraperitoneally 40 minutes prior the inflammation induction. The control group of the rats received an equivalent amount of physiological solution in the emulsion with Tween-80. Acute aseptic inflammation was induced by a 1% aqueous solution of 0.1 ml)—carrageenan injection under plantar aponeurosis of the hind paw of animals of the experimental and control groups (see Trinus F. P. Nonsteroidal anti-inflammatory drugs/F. P. Trinus, N. A. Mohort, B. M. Klebanov//K., 1975, pp. 204-231., Winter C. A. Carrageenin—induced edema in hind paw of the rat as an assay for antiinflammatory drugs/C. A. Winter, E. A. Risley, G. V. Nuss//Proc. Soc. Exp. Biol. Med.—1962.—Vol. 111.—P. 544-547). The inflammatory reaction significance was evaluated after two and four hours after the phlogogen injection. Registration of edema size was carried out by mechanical measurement of foot volume in dynamics according to Zakharevsky A. S. (see Zaharevskiy A. S. The influence of some indole derivatives on the nervous system. Diss. cand. med. science/Zaharevskiy Aleksandr Stepanovich-Minsk.—1969.—78-80 p.). The edema extent was estimated according to the difference in volume between the swollen paw and the paw before inflammation induction. The anti-inflammatory efficacy of the test compounds was determined as the ability of the test compounds to suppress the inflammatory response in the experimental animals compared to the control animals and expressed as a percentage. The calculation was carried out according to the following formula:
The percentage of inflammation suppression=(ΔVκ−ΔV ? /ΔVκ)·100%,
where: ΔVκ—the average increase in the volume of the swollen paw in the control;
ΔV ? —the average increase in the volume of the swollen paw in animals injected by experimental substances.

The next assay relates to MES-induced seizures. The note with it: literature data; interval in brackets; cited from earlier work.
Assay [2] relates to pentylenetetrazole-induced convulsions. The note with it: literature data; interval in brackets; cited from earlier work.
The subject of assay [3] is model of neuropathic pain in rats. Briefly: Model of neuropathic pain (sciatic nerve ligation), threshold of pain sensitivity by dolorimeter. The note with it: for Changes in the threshold of pain perception, regarding healthy limb: damaged vs healthy limb before administration (baseline); for Threshold of pain sensitivity, damaged limb / Threshold of pain sensitivity, healthy limb: day 14 after ligation, before administration (baseline), M±m, n=10; for Pain perception threshold changes, regarding pathology before administration of compounds / Threshold of pain sensitivity 2 hours after compounds administration: 2 hours; for Threshold of pain sensitivity 2 hours after compounds administration: damaged limb. The class given is in vivo, male Wistar rats. Here is the method:
An evaluation of the antinociceptive action of the test compound (1) on a model of neuropathic pain was carried out on 50 male Wistar rats weighing 270-310 g. The model of neuropathic pain was reproduced by ligation of the sciatic nerve at the level of the upper third of the thigh at the level of the popliteal fossa higher than the site of its trifurcation by N. tibialis, N. peroneus and N. suralis (see Mironov A. N. et al. Guidelines for conducting preclinical studies of drugs. Part one.—Moscow 2012. p. 197-219). The development of the pathological process lasted 14 days. The degree of hyperalgesia was determined using a dolorimeter (Dolorimeter Baseline, USA) by determining the threshold of pain sensitivity (TPS)—the minimum pressure on the lower surface of the rat's foot (g/mm^2), which caused pain in the animal (vocalization and/or withdrawal of the foot). Each animal was given 5 attempts; the threshold value was taken with such a pressure force, which caused a positive response in at least one attempt. The threshold of pain sensitivity was compared on intact and damaged limbs on day 14 after ligation (pathology without treatment), as well as on the injured limb after 2 hours (peak of action) after the drugs administration. The test compound and the reference drug (ketorolac) were administered intragastrally (as gavage) once at doses of 0.5 and 3 mg/kg. Sciatic nerve ligation in animals caused the development of neuropathic pain syndrome, which manifested itself in behavioral reactions of the rat and lowering the threshold of pain sensitivity by an average of 44-48% (see Table 1). The analgesic effect of Compound 1 compared with ketorolac under the conditions of their intragastral administration on the model of neuropathic pain in rats (M±m, n=10, where n is the number of animals in the experiments) is shown in Table 1.

For assay [4], the system named is thermal tail flick test in rats. Put plainly: Model of thermal stimulation (tail-flick). The note with it: n=10. The class given is in vivo. The source says: The problem was solved by experimental study of the antinociceptive action of the test compound 1 on the model of NP in rats and on the model of pain with the participation of central mechanisms, in particular, thermal tail flick test in rats. Based on the available data on the positive response of constant pain to anticonvulsants in the acute and paroxysmal phase and considering structure 1, we performed an evaluation of the anticonvulsant action of the compound on models of pentamethylenetetrazol-induced convulsions and seizures caused by maximal electroshock (MES). We have taken into account the possible side reaction (ulcerogenic effect) of the compound in experimental animals, expressed in the formation of defects in the mucous membrane of the gastrointestinal tract or in provocation of already existing peptic ulcer relapses. The probability of ulcers formation of medicinal origin is especially high during administration of non-steroidal anti-inflammatory drugs in high doses and in combination with their long-term use in the form of tablets.
A more pronounced effect was after parenteral administration (see Table 2). Control: solvent (twin, distilled water, pH-corrector). Results of the study of Compound 1 and ketorolac analgesic effects on the model of thermal stimulation (tail-flick) as degree of pain sensitivity threshold increase in relation to the initial level (%), n=10, are given in Table 2.

For assay [5] the following is noted: according to the literature data for ketorolac; cited from earlier work.
For assay [6], the system named is pentylenetetrazole-induced convulsions. Briefly: Pentylenetetrazole-induced seizures. In kind it is in vivo, non-linear male mice. The note with it: mice; subcutaneously; dose-effect relationship of the seizure agent. The source says: In many cases, the presence of anticonvulsant (antiepileptic) effect of the compounds correlates with analgesic properties on corresponding models of neuralgia. As a general step is a primary screening of new anticonvulsant compounds on rodents with the help of pentylenetetrazole test and MES (maximal electroshock seizures) as they have a qualitative difference in development and manifestations of seizures. It is believed that the compound ability to prevent the MES-induced seizures is connected with impulse spread inhibition throughout the central nervous system. It is believed that the ability to prevent the MES-induced seizures development indicates the potential efficacy of the compound in the preventing propagation of a pulse along the neural tissue (see Tompson E. Medicines. Bioscreening/Under the editorship of A. V. Stefanova.-K.: Avitsenna, 1998.—250 p.).
The experiments were performed on non-linear male mice weighing 19-29 g. Pentylenetetrazole was administered subcutaneously in the cervical region of the back. […]
For MES-induced seizures experimental animals were exposed to electric stimulation through the corneal electrodes (50 Hz, 50 mA for mice during 0.2 s). The number of animals with the maximum tonic extension of the hind limbs, which occurs in almost 100% of the animals in the control group, was calculated. […]

For the compound `O=C(O)Cc1ccccc1Nc1c(Cl)cccc1Cl` [Diclofenac-sodium, diclofenac-sodium, reference compound], the “I phase, % effect (decrease in the time of licking of the paw)” value with formalin test in mice (phase 0-5 min) stood at 51.00 ± 11.64 %. Further, the “II phase, effect (decrease in the time of licking of the paw)” value with formalin test in mice (phase 15-40 min) is reported as 53.60 ± 11.02. In assay [1], the “Inhibition of edema in 2 hours (%)” value was found to be 43.0 ± 7.0 % and the “Inhibition of edema in 4 hours (%)” value came out at 57.10 ± 8.3 %.
As to `NCC1(CC(=O)O)CCCCC1` [Gabapentin, gabapentin], the “Anticonvulsive activity (ED50), MES” value in the assay with MES-induced seizures is 19 (16-24) mg/kg. For the same compound, in assay [2], the “Anticonvulsive activity (ED50), Pentylenetetrazole” value is reported as 32 (50-200) mg/kg.
For the compound `O=C(c1ccccc1)c1ccc2n1CCC2C(=O)O` (stereo not drawn) [Ketorolac, ketorolac], the “Changes in the threshold of pain perception, regarding healthy limb” value in assay [3] (0.5 mg/kg group) is reported as −47.3 ± 3.9%; in assay [3] (3 mg/kg group), −45.7 ± 3.5%. For the same compound, the “Threshold of pain sensitivity, damaged limb” value is given as 287.9 ± 19.85 g/mm^2 in assay [3] (0.5 mg/kg group) and 296.4 ± 19.6 g/mm^2 in assay [3] (3 mg/kg group). Also, the “Threshold of pain sensitivity, healthy limb” value is on record as 550.0 ± 19.0 g/mm^2 in assay [3] (0.5 mg/kg group) and 547.1 ± 15.1 g/mm^2 in assay [3] (3 mg/kg group). The “Pain perception threshold changes, regarding pathology before administration of compounds” value in assay [3] (0.5 mg/kg intragastrally once) is “+24.6 ± 5.2%”; in assay [3] (0.5 mg/kg intragastrally once, listed as ketorolac), “+24.6%”; in assay [3] (3 mg/kg intragastrally once), “+70.1 ± 6.2%”; in assay [3] (3 mg/kg intragastrally once, listed as ketorolac) it was “+70.1%”. Besides, the “Threshold of pain sensitivity 2 hours after compounds administration” value in assay [3] (0.5 mg/kg intragastrally once) worked out at 355.0 ± 19.5 g/mm^2; in assay [3] (3 mg/kg intragastrally once), 501.4 ± 34.9 g/mm^2. Also, the “Degree of pain sensitivity threshold increase in relation to the initial level” value was “+7.5%” in assay [4] (0.5 mg/kg orally, 1 hour); “+14.6%” in assay [4] (0.5 mg/kg orally, 2 hours); “+28.6%” in assay [4] (0.5 mg/kg orally, 4 hours); “+12.1%” in assay [4] (0.5 mg/kg orally, 6 hours); “+43.4%” in assay [4] (3 mg/kg orally, 1 hour); “+75.7%” in assay [4] (3 mg/kg orally, 2 hours). The “Degree of pain sensitivity threshold increase in relation to the initial level” value in assay [4] (3 mg/kg orally, 4 hours) is listed as “+65.7%”; in assay [4] (3 mg/kg orally, 6 hours) it was “+28.1%”. Besides, the “ED50 (analgesic effect)” value in assay [5] is 3 mg/kg.
For `CC(C)C[C@H](CN)CC(=O)O` [Pregabalin, pregabalin], the “Anticonvulsive activity (ED50), MES” value in the assay on MES-induced seizures is given as 73 (57-93) mg/kg. For the same compound, the “Anticonvulsive activity (ED50), Pentylenetetrazole” value in assay [2] is listed as 31 (16-62) mg/kg.
Regarding `C1CCc2nnnn2CC1` [pentylenetetrazole, reference compound], the “ED95 of pentylenetetrazole (seizure agent)” value in assay [6] was 120 mg/kg.
